Results on 30 compounds are retold here after patent US20230102554A1 (GB002, INC., priority 2019, published 2023).

Test [1] addresses T1, Human PDGFRα, cytoplasmic domain (GST-PDGFRα) (Homo sapiens, UniProt P16234).
T1 construct: made in house
The test is described as follows: Human PDGFRα biochemical inhibition assay (off-chip Mobility Shift Assay).

The target in test [2] is T2, Human PDGFRβ, cytoplasmic domain (GST-PDGFRβ) (Homo sapiens, UniProt P09619).
T2 construct: made in house
The experiment in a line: Human PDGFRβ biochemical inhibition assay (off-chip Mobility Shift Assay). In a few lines:
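GST-tagged cytoplasmic domain (aa 557-1106) from baculovirus was incubated 1 h at room temperature with compound, CSKtide, ATP at Km and Mg²⁺ in HEPES buffer, pH 7.5. Phosphorylated and unphosphorylated peptide were separated by off-chip mobility shift, and the product ratio P/(P+S) gave percent inhibition.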

Structures are written as SMILES.

T1 sequence (P16234 550-1089 T674I): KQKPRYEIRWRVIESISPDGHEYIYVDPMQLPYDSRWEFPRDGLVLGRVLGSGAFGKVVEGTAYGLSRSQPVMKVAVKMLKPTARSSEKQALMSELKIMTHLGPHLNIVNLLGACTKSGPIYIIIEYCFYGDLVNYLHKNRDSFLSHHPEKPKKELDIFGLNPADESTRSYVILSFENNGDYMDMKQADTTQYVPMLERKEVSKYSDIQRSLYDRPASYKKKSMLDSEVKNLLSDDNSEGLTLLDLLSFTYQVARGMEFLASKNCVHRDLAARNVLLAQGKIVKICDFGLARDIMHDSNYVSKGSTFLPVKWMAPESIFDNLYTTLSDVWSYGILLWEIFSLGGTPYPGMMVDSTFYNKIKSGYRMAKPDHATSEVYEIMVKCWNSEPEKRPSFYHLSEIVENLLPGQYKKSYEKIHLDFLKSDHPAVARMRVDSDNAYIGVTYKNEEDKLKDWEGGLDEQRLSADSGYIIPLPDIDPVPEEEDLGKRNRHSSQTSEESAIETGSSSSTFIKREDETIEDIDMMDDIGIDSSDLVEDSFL
T2 sequence (P09619 with tags, fused parts or gaps): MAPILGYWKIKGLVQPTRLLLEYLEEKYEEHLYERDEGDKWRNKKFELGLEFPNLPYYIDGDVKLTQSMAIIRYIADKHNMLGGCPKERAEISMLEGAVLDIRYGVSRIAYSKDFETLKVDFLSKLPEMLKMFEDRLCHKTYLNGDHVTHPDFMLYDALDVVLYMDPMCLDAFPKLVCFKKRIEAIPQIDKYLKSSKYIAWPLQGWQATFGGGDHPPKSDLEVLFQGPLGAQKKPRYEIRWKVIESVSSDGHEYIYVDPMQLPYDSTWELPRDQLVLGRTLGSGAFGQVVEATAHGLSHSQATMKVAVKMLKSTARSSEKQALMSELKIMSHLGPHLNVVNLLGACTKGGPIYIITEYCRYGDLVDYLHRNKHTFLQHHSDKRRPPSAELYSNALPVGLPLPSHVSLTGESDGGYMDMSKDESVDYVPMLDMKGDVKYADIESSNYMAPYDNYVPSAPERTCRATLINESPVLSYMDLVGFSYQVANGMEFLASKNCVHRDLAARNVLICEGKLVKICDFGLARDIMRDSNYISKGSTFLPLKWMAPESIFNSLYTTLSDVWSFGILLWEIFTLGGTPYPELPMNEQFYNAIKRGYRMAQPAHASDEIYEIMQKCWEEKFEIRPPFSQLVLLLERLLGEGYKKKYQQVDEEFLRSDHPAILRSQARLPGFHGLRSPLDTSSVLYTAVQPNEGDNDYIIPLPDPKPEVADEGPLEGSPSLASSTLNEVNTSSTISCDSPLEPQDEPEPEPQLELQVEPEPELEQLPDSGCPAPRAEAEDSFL

In general, IC50 refers to the point on the concentration scale where inhibition reaches its midpoint. With `CCn1ccc2ncc(N[C@@H](C)c3cccc(NC(=O)c4cncc(C)c4)c3)nc21` [Compound 82, (S)-N-(3-(1-((5-ethyl-5H-pyrrolo[2,3-b]pyrazin-3-yl)amino)ethyl)phenyl)-5-methylnicotinamide], the results for the IC50 in test [1] and in test [2] were below 300 nM and 300 to 1000 nM, respectively.

As to `Cc1cncc(C(=O)Nc2cccc([C@H](C)Nc3cnc4ccn(CCO)c4n3)c2)c1` [Compound 83, (S)-N-(3-(1-((5-(2-hydroxyethyl)-5H-pyrrolo[2,3-6]pyrazin-3-yl)amino)ethyl)phenyl)-5-methylnicotinamide], the IC50 in test [1] is below 300 nM; in test [2], at least 1000 nM.

Consider `COCCn1ccc2ncc(N[C@@H](C)c3cccc(NC(=O)c4cncc(C)c4)c3)nc21` [Compound 84, (S)-N-(3-(1-((5-(2-methoxyethyl)-5H-pyrrolo [2,3-b]pyrazin-3-yl)amino)ethyl)phenyl)-5-methylnicotinamide], for which the IC50 was below 300 nM in test [1] and 300 to 1000 nM in test [2].

Consider `Cc1cncc(C(=O)Nc2cccc([C@H](C)Nc3cnc4ccn(CCN5CCOCC5)c4n3)c2)c1` [Compound 85, (S)-5-methyl-N-(3-(1-((5-(2-morpholinoethyl)-5H-pyrrolo [2,3-b]pyrazin-3-yl)amino)ethyl)phenyl)nicotinamide], for which the IC50 in test [1] and in test [2] was at least 1000 nM each time.

On to `Cc1cncc(C(=O)Nc2cccc([C@H](C)Nc3cnc4ccn(-c5cnn(C)c5)c4n3)c2)c1` [Compound 86, (S)-5-methyl-N-(3-(1-((5-(1-methyl-1H-pyrazol-4-yl)-5H-pyrrolo[2,3-b]pyrazin-3-yl)amino)ethyl)phenyl) nicotinamide], for which the IC50 in test [1] and in test [2] was below 300 nM in each case.

Regarding `COc1ccc(-n2ccc3ncc(N[C@@H](C)c4cccc(NC(=O)c5cncc(C)c5)c4)nc32)cc1OC` [Compound 87, (S)-N-(3-(1-((5-(3,4-dimethoxyphenyl)-5H-pyrrolo [2,3-b]|pyrazin-3-yl)amino)ethyl)phenyl)-5-methylnicotinamide], the IC50 in test [1] and in test [2] was below 300 nM in each case.

As for `COc1ccc(Cn2ccc3ncc(N[C@@H](C)c4cccc(NC(=O)c5cncc(C)c5)c4)nc32)cc1OC` [Compound 88, (S)-N-(3-(1-((5-(3,4-dimethoxybenzyl)-5H-pyrrolo [2,3-b]pyrazin-3-yl)amino)ethyl)phenyl)-5-methylnicotinamide], the IC50 is below 300 nM in test [1] and at least 1000 nM in test [2].

As to `Cc1cncc(C(=O)Nc2cccc([C@H](C)Nc3cnc4cnn(C)c4c3)c2)c1` [Compound 89, (S)-5-methyl-N-(3-(1-((1-methyl-1H-pyrazolo[4,3-b]pyridin-6-yl)amino)ethyl)phenyl)nicotinamide], the results for the IC50 in test [1] and in test [2] were below 300 nM and 300 to 1000 nM, respectively.

Turning to `Cc1cncc(C(=O)Nc2cccc([C@H](C)Nc3cnc4cn[nH]c4n3)c2)c1` [Compound 90, (S)-N-(3-(1-((1H-pyrazolo[3,4-b]pyrazin-6-yl)amino)ethyl)phenyl)-5-methylnicotinamide], the concentration for half-maximal inhibition (IC50) in test [1] and in test [2] was below 300 nM throughout.

`CCc1cncc(C(=O)Nc2cccc([C@H](C)Nc3cnc4cn[nH]c4n3)c2)c1` [Compound 91, (S)-N-(3-(1-((1H-pyrazolo[3,4-b]pyrazin-6-yl)amino)ethyl)phenyl)-5-ethylnicotinamide]: the IC50 in test [1] and in test [2] was below 300 nM throughout.

In the case of `C[C@H](Nc1cnc2cn[nH]c2n1)c1cccc(NC(=O)c2cncc(CO)c2)c1` [Compound 92, (S)-N-(3-(1-((1H-pyrazolo[3,4-b]pyrazin-6-yl)amino)ethyl)phenyl)-5-(hydroxymethyl) nicotinamide], the IC50 in test [1] was below 300 nM; in test [2], at least 1000 nM.

As to `C[C@H](Nc1cnc2cn[nH]c2n1)c1cccc(NC(=O)c2cncc(C3CC3)c2)c1` [Compound 93, (S)-N-(3-(1-((1H-pyrazolo[3,4-b]pyrazin-6-yl)amino)ethyl)phenyl)-5-cyclopropylnicotinamide], the half-inhibitory concentration (IC50) in test [1] and in test [2] was below 300 nM each time.

Regarding `C[C@H](Nc1cnc2cn[nH]c2n1)c1cccc(NC(=O)c2cncc(C(C)(C)F)c2)c1` [Compound 94, (S)-N-(3-(1-((1H-pyrazolo[3,4-b]pyrazin-6-yl)amino)ethyl)phenyl)-5-(2-fluoropropan-2-yl) nicotinamide], the IC50 in test [1] and in test [2] was below 300 nM throughout.

On to `C[C@H](Nc1cnc2cn[nH]c2n1)c1cccc(NC(=O)c2cncc(C(C)(C)O)c2)c1` [Compound 95, (S)-N-(3-(1-((1H-pyrazolo[3,4-6]pyrazin-6-yl)amino)ethyl)phenyl)-5-(2-hydroxypropan-2-yl)nicotinamide], for which the IC50 in test [1] and in test [2] was below 300 nM in each case.

As for `C[C@H](Nc1cnc2cn[nH]c2n1)c1cccc(NC(=O)c2cncc(C3CCC3)c2)c1` [Compound 96, (S)-N-(3-(1-((1H-pyrazolo[3,4-b]pyrazin-6-yl)amino)ethyl)phenyl)-5-cyclobutylnicotinamide], the IC50 in test [1] and in test [2] was below 300 nM each time.

Take `C[C@H](Nc1cnc2cn[nH]c2n1)c1cccc(NC(=O)c2cncc(C3COC3)c2)c1` [Compound 97, (S)-N-(3-(1-((1H-pyrazolo[3,4-b]pyrazin-6-yl)amino)ethyl)phenyl)-5-(oxetan-3-yl) nicotinamide]: the IC50 in test [1] and in test [2] was below 300 nM in each case.

`Cc1cc(C(=O)Nc2cccc([C@H](C)Nc3cnc4cn[nH]c4n3)c2)cnc1C(F)(F)F` [Compound 98, (S)-N-(3-(1-((1H-pyrazolo[3,4-b]pyrazin-6-yl)amino)ethyl)phenyl)-5-methyl-6-(trifluoromethyl)nicotinamide]: the IC50 in test [1] and in test [2] was below 300 nM in each case.

As to `C[C@H](Nc1cnc2cn[nH]c2n1)c1cccc(NC(=O)c2ccc(C(F)(F)F)nc2)c1` [Compound 99, (S)-N-(3-(1-((1H-pyrazolo[3,4 b]pyrazin-6-yl)amino)ethyl)phenyl)-6-(trifluoromethyl) nicotinamide], the IC50 in test [1] and in test [2] was below 300 nM in each case.

Turning to `CC(C)n1cc(C(=O)Nc2cccc([C@H](C)Nc3cnc4cn[nH]c4n3)c2)cn1` [Compound 100, (S)-N-(3-(1-((1H-pyrazolo[3,4-b]pyrazin-6-yl)amino)ethyl)phenyl)-1-isopropyl-1H-pyrazole-4-carboxamide], the IC50 in test [1] and in test [2] was below 300 nM each time.

Consider `CCc1cncc(C(=O)Nc2cccc([C@H](C)Nc3cnc4cnn(C)c4n3)c2)c1` [Compound 101], for which the IC50 in test [1] and in test [2] was below 300 nM throughout.

In the case of `C[C@H](Nc1cnc2cnn(C)c2n1)c1cccc(NC(=O)c2cncc(C(F)(F)F)c2)c1` [Compound 102, (S)-N-(3-(1-((1-methyl-1H-pyrazolo[3,4-b]pyrazin-6-yl)amino)ethyl)phenyl)-5-(trifluoromethyl)nicotinamide], the IC50 in test [1] and in test [2] was below 300 nM throughout.

As to `C[C@H](Nc1cnc2cnn(C)c2n1)c1cccc(NC(=O)c2cncc(C(F)F)c2)c1` [Compound 103, (S)-5-(difluoromethyl)-N-(3-(1-((1-methyl-1H-pyrazolo[3,4-b]pyrazin-6-yl)amino)ethyl)phenyl)nicotinamide], the IC50 in test [1] and in test [2] was below 300 nM throughout.

For the compound `COc1cncc(C(=O)Nc2cccc([C@H](C)Nc3cnc4cnn(C)c4n3)c2)c1` [Compound 104, (S)-5-methoxy-N-(3-(1-((1-methyl-1H-pyrazolo[3,4-b]pyrazin-6-yl)amino)ethyl)phenyl)nicotinamide], the IC50 in test [1] and in test [2] was below 300 nM each time.

`C[C@H](Nc1cnc2cnn(C)c2n1)c1cccc(NC(=O)c2cncc(C3CC3)c2)c1` [Compound 105, (S)-5-cyclopropyl-N-(3-(1-((1-methyl-1H-pyrazolo[3,4-b]pyrazin-6-yl)amino)ethyl)phenyl)nicotinamide]: the concentration for half-maximal inhibition (IC50) in test [1] and in test [2] was below 300 nM each time.

In the case of `C[C@H](Nc1cnc2cnn(C)c2n1)c1cccc(NC(=O)c2cncc(CO)c2)c1` [Compound 106, (S)-5-(hydroxymethyl)-N-(3-(1-((1-methyl-1H-pyrazolo[3,4-b]pyrazin-6-yl)amino)ethyl)phenyl)nicotinamide], the IC50 in test [1] is below 300 nM; in test [2], 300 to 1000 nM.

As for `C[C@H](Nc1cnc2cnn(C)c2n1)c1cccc(NC(=O)c2cncc(C(C)(C)O)c2)c1` [Compound 107, (S)-5-(2-hydroxypropan-2-yl)-N-(3-(1-((1-methyl-1H-pyrazolo[3,4-b]pyrazin-6-yl)amino)ethyl)phenyl) nicotinamide], the IC50 in test [1] and in test [2] was below 300 nM each time.

As to `C[C@H](Nc1cnc2cnn(C)c2n1)c1cccc(NC(=O)c2cncc(C(C)(C)F)c2)c1` [Compound 108, (S)-5-(2-fluoropropan-2-yl)-N-(3-(1-((1-methyl-1H-pyrazolo[3,4-b]pyrazin-6-yl)amino)ethyl)phenyl) nicotinamide], the 50% inhibitory concentration (IC50) in test [1] and in test [2] was below 300 nM throughout.

As to `C[C@H](Nc1cnc2cnn(C)c2n1)c1cccc(NC(=O)c2cncc(Cl)c2)c1` [Compound 109, (S)-5-chloro-N-(3-(1-((1-methyl-1H-pyrazolo[3,4-b]pyrazin-6-yl)amino)ethyl)phenyl)nicotinamide], the IC50 in test [1] and in test [2] was below 300 nM each time.

As to `C[C@H](Nc1cnc2cnn(C)c2n1)c1cccc(NC(=O)c2cncc(Br)c2)c1` [Compound 111, (S)-5-bromo-N-(3-(1-((1-methyl-1H-pyrazolo[3,4-b]pyrazin-6-yl)amino)ethyl)phenyl)nicotinamide], the IC50 in test [1] and in test [2] was below 300 nM throughout.

For the compound `COCc1cncc(C(=O)Nc2cccc([C@H](C)Nc3cnc4cnn(C)c4n3)c2)c1` [Compound 112, (S)-5-(methoxymethyl)-N-(3-(1-((1-methyl-1H-pyrazolo[3,4-b]pyrazin-6-yl)amino)ethyl)phenyl)nicotinamide], the IC50 in test [1] and in test [2] was below 300 nM throughout.
